Measured values published in publication PMC6874667, “A conserved odorant binding protein is required for essential amino acid detection in Drosophila” (Communications Biology, 2019).
Counter-ions that a name gives are not always drawn.

Tests used:
OBP19b [1] = target: T1, OBP19b (Drosophila melanogaster, UniProt Q9VR95); assay: biochemical; design: competitive NPN probe displacement from recombinant OBP19b, fluorescence 340/415 nm, single concentration, per cent fluorescence displacement; conditions: NPN displacement; buffer blank 13.4 % not subtracted
T1 construct: mature OBP19b without its native signal peptide
T1 sequence (Q9VR95 34-163): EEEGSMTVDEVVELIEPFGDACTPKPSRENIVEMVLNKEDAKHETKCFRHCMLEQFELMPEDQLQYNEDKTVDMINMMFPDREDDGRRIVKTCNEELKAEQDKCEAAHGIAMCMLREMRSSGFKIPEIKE
Description: To measure the affinity of OBP19b to ligands, a competitive screening assay was performed at 23 °C using a 96-well microplate format and a Victor3 V microplate reader (PerkinElmer Life Sciences) with 25 and 5 nm slits for excitation and emission, respectively. The excitation wavelength was 340 nm, and the fluorescence emission intensity was recorded at 415 nm. First, a wide screening array involving various ligand compounds was performed. Each well contained 200 µL of 2 µM OBP19b with 4 µM NPN dissolved in 50 mM sodium phosphate buffer at pH 7.5. Fatty acids and bitter compounds were tested in the µM range, whereas sugars, amino acids, vitamins, acids, amines, and isothiocyanate compounds were tested in the mM range. All tested compounds were dissolved in 10% methanol except amino acids, which were dissolved in 50 mM sodium phosphate buffer at pH 7.5. Based on the results of the first screen, the 20 L-amino acids, certain D-amino acids and three nonproteinogenic amino acids were tested by adding 100 µL of a 30 mM ligand stock solution to the microplate wells to obtain a final concentration of 15 mM, and then the solution was mixed. Significant differences using one-way analysis of variance (ANOVA) followed by Dunnett’s test were observed compared to the buffer (***p < 0.001; **p < 0.01). The competitive-binding curves were identified by titration of OBP19b/NPN complex with aliquots of 50 mM ligand to final concentration ranging from 0 to 20 mM. The dissociation constants (Kdapp) of each compound were calculated according to the corresponding IC50 values (the concentration of ligands required to halve the initial fluorescence value of NPN) using the following equation: Kdapp = [IC50]/(1 + […]/KNPN), where [NPN] is the free concentration of NPN. The reported Kdapp values are the average of three measurements performed on three independently experiments.  Fig. 2 Binding properties of OBP19b with a competitive fluorescent assay. The fluorescent displacement of the fluorescent probe NPN by various taste compounds was evaluated by adding aliquots of 50 mM ligand (dissolved in 50 mM sodium phosphate buffer at pH 7.5) to final concentration ranging from 0 to 20 mM. a Fatty acid esters and bitter compounds were tested at a final concentration of 40 µM. b Amino acids, vitamins, acids, amines, trigeminal (isothiocyanate), and sugars compounds were tested at a 15 mM final concentration. c Fluorescent displacement of 20 L-amino acids, including L-phenylalanine (L-Phe: magenta color), L-glutamine (L-Gln: green) and L-alanine (L-Ala: cyan); three nonproteinogenic amino acids L-ornithine (L-Orn), L-canavanine (L-Can), L-citrulline (L-Cit); and three D-amino acids (D-phenylalanine: orange, D-glutamine: blue, and D-alanine: gray). Dots indicate essential amino acids. Statistical differences were determined using one-way ANOVA followed by Dunnett’s test (***p < 0.001; **p < 0.01). d Competitive-binding curves of L-Phe and L-Gln (showing the lowest Kdapp), L-Ala (negative control), and their three corresponding D-isomers. Data values represent the mean ± SEM.

OBP19b [2] = target: T1, OBP19b; assay: direct fluorescence titration with fluorescent probe; type: binding
OBP19b [3] = target: T1, OBP19b; assay: competitive NPN fluorescence displacement, single dose […]; type: binding

inhibition at 15000 µM (OBP19b [1]) [%] | Structure (SMILES) | further results
23.5 | C[C@@H](N)C(=O)O [D-alanine] | –
31.6 | NCC(=O)O [Glycine] | –
27.2 | C[C@H](N)C(=O)O [L-alanine] | –
41.2 | NC(=O)C[C@H](N)C(=O)O [L-asparagine] | –
43.4 | N[C@@H](CC(=O)O)C(=O)O [L-aspartic acid] | –
-14.4 | N[C@@H](CS)C(=O)O [L-cysteine] | –
7.44 | N[C@@H](Cc1c[nH]cn1)C(=O)O [L-histidine] | –
22.8 | CC[C@H](C)[C@H](N)C(=O)O [L-isoleucine] | –
22.8 | CC(C)C[C@H](N)C(=O)O [L-leucine] | –
20.1 | O=C(O)[C@@H]1CCCN1 [L-proline] | –
46.2 | N[C@@H](CO)C(=O)O [L-serine] | –
17.8 | C[C@@H](O)[C@H](N)C(=O)O [L-threonine] | –
16.2 | CC(C)[C@H](N)C(=O)O [L-valine] | –

Further lines, the molecule ahead of its results:

Structure (SMILES) | inhibition at 15000 µM (OBP19b [1]) [%] | further results
NC(=O)CC[C@@H](N)C(=O)O [D-glutamine] | 22.6 | –
N[C@H](Cc1ccccc1)C(=O)O [D-phenylalanine] | 28.3 | –
NC(=O)CC[C@H](N)C(=O)O [L-Gln, L-glutamine] | 40.7 | –
N[C@@H](Cc1ccccc1)C(=O)O [L-Phe, L-phenylalanine] | 44 | –
N=C(N)NCCC[C@H](N)C(=O)O [L-arginine] | 40.5 | –
NC(N)=NOCC[C@H](N)C(=O)O [L-canavanine sulfate salt] | 22.2 | –
N[C@@H](CCC(=O)O)C(=O)O [L-glutamic acid] | -0.061 | –
NCCCC[C@H](N)C(=O)O [L-lysine] | 20.2 | –
CSCC[C@H](N)C(=O)O [L-methionine] | 37.3 | –
NCCC[C@H](N)C(=O)O [L-ornithine dihydro chloride] | 25.1 | –
N[C@@H](Cc1c[nH]c2ccccc12)C(=O)O [L-tryptophan] | 36.2 | –
N[C@@H](Cc1ccc(O)cc1)C(=O)O [L-tyrosine] | -122 | –
c1ccc(Nc2cccc3ccccc23)cc1 [NPN, N-phenyl-1-naphthylamine] | – | Kd (OBP19b [2]): 4.1 ± 0.9 µM
COc1ccc2cc3[n+](cc2c1OC)CCc1cc2c(cc1-3)OCO2 [berberine] | – | competitive NPN fluorescence displacement, single dose 40 μM (OBP19b [3]): The highest level of fluorescence displacement was induced by papaverine, berberine, 2-phenylethyl isothiocyanate
COc1ccc(Cc2nccc3cc(OC)c(OC)cc23)cc1OC [papaverine] | – | competitive NPN fluorescence displacement, single dose 40 μM (OBP19b [3]): The highest level of fluorescence displacement was induced by papaverine, berberine, 2-phenylethyl isothiocyanate
